Experimental data as given in patent US20160228586A1, “Compounds and Their Use for Preparation of Tau Imaging Agents and Tau Imaging Formulations” (ELI LILLY AND COMPANY, priority 2013, published 2016).

How the values were obtained:
[1] = Solubility of precursor in DMSO; format: physicochemical; settings: no sonication or heating required
From the text: The solubility of the precursor compound affects the ability of the compound to get into solution so that a reaction to produce [^18F]T807 can effectively occur.

native tau aggregates = test: Film autoradiography of AD brain tissue sections; format: binding, human
Procedure: Film autoradiography of AD Brain Tissue Sections are performed in a manner consistent with previously published methods (See Zhang, W., et al. F-18 stilbenes as PET imaging agents for detecting beta-amyloid plaques in the brain. Journal of Medicinal Chemistry, 48: 5980-5988, 2005, Zhang, W., et al. F-18 stilbenes as PET imaging agents for amyloid plaque imaging. Nucl Med Biol. 2007 34(1):89-97.)
Postmortem AD diagnosed human brain sections (frontal lobe, 10 um) are covered with 0.5 ml of [^18F]T807 (in 2.5:2.5:95=DMSO:ethanol:1X-phospate buffered saline (PBS), about 20 uCi of [^18F]T807 per slide, and incubated for 60 minutes at room temperature. Then successive washing cycles are employed with 2 minutes of 1× PBS, 2 minutes of 30% ethanol/1× PBS, 2 minutes of 70% ethanol/1× PBS, and 2 minutes 1× PBS, to remove any unbound tracer. After drying under a fume hood, the sections are put on a FujiFilm radio-sensor cassette and exposed over night. The autoradiography signal is recorded in the radio-sensor sheet and is read/visualized with the FujiFilm Bio-Imaging System FLA-7000. Autoradiographic visualization of tau is observed in gray matter of postmortem AD brain tissue. See FIG. 2 which illustrates [^18F]T807 labeling of tau in post-mortem frontal lobe sections (10 um) of tau-positive human brain tissue from patients with AD, approximately 20 uCi of [^18F]T807 per slide. Strong autoradiography signal of [^18F]T807 is observed on the grey matter (GM) region, and the presence of tau in these regions are confirmed by tau-immunostaining. The non-specific or background [^18F]T807 signal is shown in the white matter region (WM) and is low.

PHF-tau = settings: cited from Alzheimer's & Dementia 2013; cited from earlier work

CC(C)(C)OC(=O)n1c2ccncc2c2ccc(-c3ccc([N+](C)(C)C)nc3)cc21.Cc1ccc(S(=O)(=O)[O-])cc1 [formula Ia, 5-(5-(tert-butoxycarbonyl)-5H-pyrido[4,3-b]indol-7-yl)-N,N,N-trimethylpyridin-2-aminium 4-methylbenzenesulfonate]
solubility in DMSO [1]: readily soluble

Fc1ccc(-c2ccc3c(c2)[nH]c2ccncc23)cn1 [Example T807, 7-(6-fluoro-3-pyridyl)-5H-pyrido[4,3-b]indole, reference compound]
blocking of the [18F]T807 autoradiography signal (specificity for native tau aggregates) (native tau aggregates; 1 uM of cold T807, human AD brain sections): blocking effect

[18F]c1ccc(-c2ccc3c(c2)[nH]c2ccncc23)cn1 [[^18F]T807, 7-(6-[^18F]fluoro-3-pyridyl)-5H-pyrido[4,3-b]indole]
non-specific or background signal in the white matter region (WM) (native tau aggregates; post-mortem frontal lobe sections (10 um) of tau-positive human AD brain, about 20 uCi per slide): low | autoradiography signal on the grey matter (GM) region (native tau aggregates; post-mortem frontal lobe sections (10 um) of tau-positive human AD brain, about 20 uCi per slide, 60 minutes at room temperature): Strong | affinity and selectivity to PHF-tau (PHF-tau): high
